Reference: patent publication US20060287247A1, “Halogen-substituted thienyl compounds” (priority 2001, published 2006)
≈ marks a conversion by molar mass, not a printed value.

Legend:
[1] = test system: S. aureus ATCC 29213; test: NCCLS broth microdilution MIC; assay type: cell-based, Staphylococcus aureus; conditions: for Minimum Inhibitory Concentration (MIC): A = S. aureus ATCC 29213
Protocol: (§1) Compounds according to this invention were screened for their in vitro activities against selected species of bacteria and fungi. The minimal inhibition concentration (MIC) of these compounds was determined using the National Committee for Clinical Laboratory Standards (NCCLS) broth microdilution assay in microtiter plates, as set forth in: (1) the guidelines of the National Committee for Clinical Laboratory Standards (NCCLS) Document M7-A4 (NCCLS, 1997); (2) the guidelines of the National Committee for Clinical Laboratory Standards (NCCLS) Document M11-A4 (NCCLS, 1997); and (3) the guidelines and reference method of the National Committee for Clinical Laboratory Standards (NCCLS) Document M27-T (NCCLS, 1995). For antifungal essays, the method recommended in Murray, P R., 1995 Manual of Clinical Microbiology (ASM Press, Washington, D.C.), was employed. […]

[2] = test system: E. faecalis ATCC 29212; test: NCCLS broth microdilution MIC; assay type: cell-based, Enterococcus faecalis; conditions: for Minimum Inhibitory Concentration (MIC): B = E. faecalis ATCC 29212
Protocol: as §1

[3] = test system: B. cereus ATCC 11778; test: NCCLS broth microdilution MIC; assay type: cell-based, Bacillus cereus; conditions: for Minimum Inhibitory Concentration (MIC): C = B. cereus ATCC 11778
Protocol: as §1

[4] = test system: E. coli ATCC 25922; test: NCCLS broth microdilution MIC; assay type: cell-based; conditions: for Minimum Inhibitory Concentration (MIC): D = E. coli ATCC 25922
Protocol: as §1

[5] = test system: C. albicans ATCC 38247; test: NCCLS broth microdilution MIC (antifungal); assay type: cell-based; conditions: for Minimum Inhibitory Concentration (MIC): E = C. albicans ATCC 38247
Protocol: as §1

[6] = test system: S. pneumoniae ATCC 49619; test: NCCLS broth microdilution MIC; assay type: cell-based, Streptococcus pneumoniae; conditions: for Minimum Inhibitory Concentration (MIC): F = S. pneumoniae ATCC 49619
Protocol: as §1

[7] = test system: 5′-AAAAAGACAAAAA-3′; assay type: binding; conditions: DNA sequence 5′-AAAAAGACAAAAA-3′; pH 7.0, 22° C.
Protocol: (§2) A number of compounds according to this invention were screened for their ability to bind to three DNA sites, using DNase I footprinting. Generally, the procedure described in Dervan, WO 98/50582 (1998), was followed.
(§3) A plasmid was prepared by hybridizing two sets of 5′-phosphorylated complementary oligonucleotides, one set being
(§4) The target sites and their complements are identified in bold underline.
(§5) The resulting duplexes were ligated to the large pUC19 AvaI/SalI restriction fragment. The 3′-P32 end-labeled EcoRI/PvuII fragment was prepared by digesting the plasmid with EcoRI and PvuII with simultaneous fill-in using Sequenase v. 2.0, [alpha-P32]-deoxyadenosine-5′-triphosphate, and [alpha-P32]-thymidine-5′-triphosphate, and isolating the cloned fragment by nondenaturing gel electrophoresis. Standard methods were used for all DNA manipulations, including A and G sequencing. See, e.g., Maxam et al., Methods Enzymol., 1980, 65, 499-560; Iverson et al., Methods Enzymol., 1987, 15, 7823-7830; and Sambrook et al., 1989, Molecular Cloning, 2nd ed., Cold Spring Harbor Laboratory Press: Cold Spring Harbor, N.Y.
(§6) Quantitative DNase I footprint titration experiments were carried out as described previously (Dervan, WO 98/50582, 1998, “Dervan '582”) with the following changes. All reactions were carried out in a total volume of 400 μL, with polyamide stock solution or water added to 15,000 cpm radiolabeled restriction fragment affording final solution conditions of 10 mM Tris.HCl, 10 mM KCl, 10 mM MgCl2, 5 mM CaCl2, pH 7.0 and 0.01 nM, 0.1 nM, 1.0 nM, 10.0 nM polyamide or no polyamide for reference lanes. The polyamides were allowed to equilibrate at 22° C. for 16 hr. Footprinting reactions were initiated with addition of 10 μL of a DNase I stock solution (at the appropriate concentration to give ˜50% intact DNA) containing 1 mM DTT and allowed to proceed for 7 min at 22° C. The reactions were stopped, ethanol precipitated, resuspended in loading buffer, heat denatured, and placed on ice as described in Dervan '582. The reaction products were separated on a precast 8% polyacrylamide denaturing sequencing Castaway gel with 32 preformed wells from Stratagene in 1× TBE at 2000 V. Gels were dried according to the manufacturer's instructions and exposed to a storage phosphor screen (Molecular Dynamics). Quantitation and data analysis were carried out as described in Dervan '582.

[8] = test system: 5′-AAAAAGCAAAAA-3′; assay type: binding; conditions: DNA sequence 5′-AAAAAGCAAAAA-3′; pH 7.0, 22° C.
Protocol: as §2, §3, §4, §5, §6

[9] = test system: 5′-AAAAAGTACAAAAA-3′; assay type: binding; conditions: DNA sequence 5′-AAAAAGTACAAAAA-3′; pH 7.0, 22° C.
Protocol: as §2, §3, §4, §5, §6

Row | Minimum Inhibitory Concentration (MIC) [1] | Minimum Inhibitory Concentration (MIC) [2] | Minimum Inhibitory Concentration (MIC) [3] | Minimum Inhibitory Concentration (MIC) [4] [µg/mL] | Minimum Inhibitory Concentration (MIC) [5] | Minimum Inhibitory Concentration (MIC) [6] | Compound | Equilibrium Association Constant (Ka) [7] [M⁻¹] | Equilibrium Association Constant (Ka) [8] [M⁻¹] | Equilibrium Association Constant (Ka) [9] | MIC ([1]; Staphylococcus aureus, ATCC29213, read-out: Minimum Inhibitory Concentration (MIC)) [µg/mL] | MIC ([2]; Enterococcus faecalis, ATCC29212, read-out: Minimum Inhibitory Concentration (MIC)) [µg/mL] | MIC ([3]; Bacillus cereus, ATCC11778, read-out: Minimum Inhibitory Concentration (MIC)) [µg/mL] | MIC ([4]; Escherichia coli, ATCC25922, read-out: Minimum Inhibitory Concentration (MIC)) [µg/mL] | MIC ([5]; Candida albicans, ATCC38247, read-out: Minimum Inhibitory Concentration (MIC)) [µg/mL] | MIC ([6]; Streptococcus pneumoniae, ATCC49619, read-out: Minimum Inhibitory Concentration (MIC)) [µg/mL]
1 | +++ (+++ = MIC ≦4) | +++ (+++ = MIC ≦4) | +++ (+++ = MIC ≦4) | >32 | >32 µg/mL | +++ (+++ = MIC ≦4) | CCN(CC)CCCNC(=O)CCNC(=O)c1cc(NC(=O)c2cc(NC(=O)CCNC(=O)c3cc(NC(=O)c4cc(NC(=O)c5cc(Br)c(Br)s5)cn4C)cn3C)cn2C)cn1C [Id-6] | 1e+10 | 1e+10 | ≧1 × 10^11 M^−1 |  |  |  |  |  | 
2 | >32 µg/mL | >32 µg/mL | >32 µg/mL | >32 | >32 µg/mL | +++ (+++ = MIC ≦4) | CN(C)CCN(C)C(=O)CCNC(=O)c1cc(NC(=O)c2cc(NC(=O)CCNC(=O)c3cc(NC(=O)c4cc(NC(=O)c5cc(Br)c(Br)s5)cn4C)cn3C)cn2C)cn1C [Id-10] |  |  |  |  |  |  |  |  | 
3 | >32 µg/mL | >32 µg/mL | >32 µg/mL | >32 | >32 µg/mL | >32 µg/mL | Cn1cc(NC(=O)c2cc(NC(=O)CCNC(=O)c3cc(NC(=O)c4cc(NC(=O)c5cc(Br)c(Br)s5)cn4C)cn3C)cn2C)cc1C(=O)NCCC(=O)NCCCN1CCNCC1 [Id-13] |  |  |  |  |  |  |  |  | 
4 | +++ (+++ = MIC ≦4) | >32 µg/mL | +++ (+++ = MIC ≦4) | >32 | >32 µg/mL | +++ (+++ = MIC ≦4) | Cn1cc(NC(=O)c2cc(NC(=O)c3cc(NC(=O)c4sccc4F)cn3C)cn2C)cc1C(=O)NCCN1CCOCC1 [Ie-5] |  |  |  |  |  |  |  |  | 
5 | +++ (+++ = MIC ≦4) | +++ (+++ = MIC ≦4) | +++ (+++ = MIC ≦4) | >32 | >32 µg/mL | +++ (+++ = MIC ≦4) | Cn1cc(NC(=O)c2cc(NC(=O)c3cc(NC(=O)c4sccc4Cl)cn3C)cn2C)cc1C(=O)NCCN1CCOCC1 [Ie-6] |  |  |  |  |  |  |  |  | 
6 | >32 µg/mL | >32 µg/mL | >32 µg/mL | >32 | >32 µg/mL | ++ (++ = MIC between 4 and 12) | CN(C)CCCNC(=O)CCNC(=O)c1cc(NC(=O)c2cc(NC(=O)CCNC(=O)c3cc(NC(=O)c4cc(NC(=O)c5sccc5F)cn4C)cn3C)cn2C)cn1C [Id-30] |  |  |  |  |  |  |  |  | 
7 | ++ (++ = MIC between 4 and 12) | >32 µg/mL | +++ (+++ = MIC ≦4) | >32 | + (+ = MIC from 12 to 32, inclusive) | +++ (+++ = MIC ≦4) | CN(C)CCCNC(=O)CCNC(=O)c1cc(NC(=O)c2cc(NC(=O)CCNC(=O)c3cc(NC(=O)c4cc(NC(=O)c5sccc5Cl)cn4C)cn3C)cn2C)cn1C [Id-27] |  |  |  |  |  |  |  |  | 

More lines, now with the values behind:

Row | Compound | Minimum Inhibitory Concentration (MIC) [1] | Minimum Inhibitory Concentration (MIC) [2] | Minimum Inhibitory Concentration (MIC) [3] | Minimum Inhibitory Concentration (MIC) [4] [µg/mL] | Minimum Inhibitory Concentration (MIC) [5] | Minimum Inhibitory Concentration (MIC) [6] | Equilibrium Association Constant (Ka) [7] [M⁻¹] | Equilibrium Association Constant (Ka) [8] [M⁻¹] | Equilibrium Association Constant (Ka) [9] | MIC ([1]; Staphylococcus aureus, ATCC29213, read-out: Minimum Inhibitory Concentration (MIC)) [µg/mL] | MIC ([2]; Enterococcus faecalis, ATCC29212, read-out: Minimum Inhibitory Concentration (MIC)) [µg/mL] | MIC ([3]; Bacillus cereus, ATCC11778, read-out: Minimum Inhibitory Concentration (MIC)) [µg/mL] | MIC ([4]; Escherichia coli, ATCC25922, read-out: Minimum Inhibitory Concentration (MIC)) [µg/mL] | MIC ([5]; Candida albicans, ATCC38247, read-out: Minimum Inhibitory Concentration (MIC)) [µg/mL] | MIC ([6]; Streptococcus pneumoniae, ATCC49619, read-out: Minimum Inhibitory Concentration (MIC)) [µg/mL]
8 | Cn1cc(NC(=O)c2cc(NC(=O)CCNC(=O)c3cc(NC(=O)c4cc(NC(=O)c5cc(Br)c(Br)s5)cn4C)cn3C)cn2C)cc1C(=O)NCCC(=O)NCCCN [Id-9] | +++ (+++ = MIC ≦4) | +++ (+++ = MIC ≦4) | +++ (+++ = MIC ≦4) | >32 | >32 µg/mL | +++ (+++ = MIC ≦4) |  |  |  |  |  |  |  |  | 
9 | CCNCCNC(=O)CCNC(=O)c1cc(NC(=O)c2cc(NC(=O)CCNC(=O)c3cc(NC(=O)c4cc(NC(=O)c5cc(Br)c(Br)s5)cn4C)cn3C)cn2C)cn1C [Id-12] | +++ (+++ = MIC ≦4) | +++ (+++ = MIC ≦4) | +++ (+++ = MIC ≦4) | >32 | >32 µg/mL | +++ (+++ = MIC ≦4) |  |  |  |  |  |  |  |  | 
10 | CN(C)CCCNC(=O)c1cc(NC(=O)c2cc(NC(=O)c3cc(NC(=O)c4sccc4F)cn3C)cn2C)cn1C [Ie-4] | ++ (++ = MIC between 4 and 12) | ++ (++ = MIC between 4 and 12) | + (+ = MIC from 12 to 32, inclusive) | >32 | >32 µg/mL | +++ (+++ = MIC ≦4) |  |  |  |  |  |  |  |  | 
11 | Cn1cc(NC(=O)c2cc(NC(=O)CCNC(=O)c3cc(NC(=O)c4cc(NC(=O)c5cc(Br)c(NCCCN)s5)cn4C)cn3C)cn2C)cc1C(=O)NCCC(=O)NCCCN [Id-25] | + (+ = MIC from 12 to 32, inclusive) | + (+ = MIC from 12 to 32, inclusive) | +++ (+++ = MIC ≦4) | >32 | >32 µg/mL | +++ (+++ = MIC ≦4) |  |  |  |  |  |  |  |  | 
12 | Cn1cc(NC(=O)c2cc(NC(=O)c3cc(NC=O)cn3C)cn2C)cc1C(=O)NCCC(=N)N [Distamycin, distamycin, reference compound] |  |  |  |  |  |  |  |  |  | 12 to 32 (≈ 24.9 to 66.5 µM) | 12 to 32 (≈ 24.9 to 66.5 µM) | 4 to 12 (≈ 8.31 to 24.9 µM) | > 32 | > 32 | 12 to 32 (≈ 24.9 to 66.5 µM)
13 | Cn1cc(NC(=O)c2cc(NC(=O)CCNC(=O)c3cc(NC(=O)c4cc(NC(=O)c5ccc(Br)s5)cn4C)cn3C)cn2C)cc1C(=O)NCCC(=O)NCc1cccnc1 [Id-23] | >32 µg/mL | +++ (+++ = MIC ≦4) | >32 µg/mL | >32 | >32 µg/mL | +++ (+++ = MIC ≦4) |  |  |  |  |  |  |  |  | 
14 | Cn1cc(NC(=O)c2cc(NC(=O)CCNC(=O)c3cc(NC(=O)c4cc(NC(=O)c5ccc(Br)s5)cn4C)cn3C)cn2C)cc1C(=O)NCCC(=O)NCCCNC1CCCCC1 [Id-15] | >32 µg/mL | + (+ = MIC from 12 to 32, inclusive) | + (+ = MIC from 12 to 32, inclusive) |  | >32 µg/mL | ++ (++ = MIC between 4 and 12) | 5e+10 | 5e+10 | ≧1 × 10^11 M^−1 |  |  |  |  |  | 
